Assay in all cases: Kinase panel
What all share (assay type): biochemical

For one assay, the target named is T1, Tie2(Y897S)(h) (Homo sapiens, UniProt Q02763, Y897S).
T1 construct: purchased Millipore KinaseProfiler

The target of another assay is T2, Mer(h) (Homo sapiens, UniProt Q12866).
T2 construct: purchased Millipore KinaseProfiler
T2 sequence (Q12866 21-999): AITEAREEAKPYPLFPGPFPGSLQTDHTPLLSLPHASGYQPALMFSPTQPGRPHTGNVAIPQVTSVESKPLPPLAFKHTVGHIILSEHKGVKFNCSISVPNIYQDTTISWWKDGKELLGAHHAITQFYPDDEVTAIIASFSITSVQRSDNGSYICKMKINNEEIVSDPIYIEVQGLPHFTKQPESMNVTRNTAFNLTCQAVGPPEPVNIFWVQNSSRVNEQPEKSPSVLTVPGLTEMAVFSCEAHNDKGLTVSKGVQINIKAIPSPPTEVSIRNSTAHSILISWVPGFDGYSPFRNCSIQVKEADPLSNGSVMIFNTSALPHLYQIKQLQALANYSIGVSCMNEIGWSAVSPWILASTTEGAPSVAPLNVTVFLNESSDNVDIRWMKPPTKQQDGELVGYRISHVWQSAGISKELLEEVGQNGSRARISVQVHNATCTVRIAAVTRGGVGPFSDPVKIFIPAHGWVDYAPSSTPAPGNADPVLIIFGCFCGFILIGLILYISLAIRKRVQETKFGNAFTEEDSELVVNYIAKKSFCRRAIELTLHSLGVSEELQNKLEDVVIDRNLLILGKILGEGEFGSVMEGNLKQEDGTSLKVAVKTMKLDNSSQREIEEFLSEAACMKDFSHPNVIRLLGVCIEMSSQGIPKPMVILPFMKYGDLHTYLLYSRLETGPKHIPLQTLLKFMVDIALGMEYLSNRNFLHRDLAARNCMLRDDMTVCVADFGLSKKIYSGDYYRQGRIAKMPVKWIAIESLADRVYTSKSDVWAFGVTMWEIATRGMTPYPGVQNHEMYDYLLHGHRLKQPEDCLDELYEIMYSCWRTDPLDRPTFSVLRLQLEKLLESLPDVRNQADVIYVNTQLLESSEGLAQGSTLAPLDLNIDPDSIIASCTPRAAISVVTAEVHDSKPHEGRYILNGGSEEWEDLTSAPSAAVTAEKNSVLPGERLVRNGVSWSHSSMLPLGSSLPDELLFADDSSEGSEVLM

The target of another assay is T3, Axl(h) (Homo sapiens, UniProt P30530).
T3 construct: purchased Millipore KinaseProfiler
T3 sequence (P30530 26-894): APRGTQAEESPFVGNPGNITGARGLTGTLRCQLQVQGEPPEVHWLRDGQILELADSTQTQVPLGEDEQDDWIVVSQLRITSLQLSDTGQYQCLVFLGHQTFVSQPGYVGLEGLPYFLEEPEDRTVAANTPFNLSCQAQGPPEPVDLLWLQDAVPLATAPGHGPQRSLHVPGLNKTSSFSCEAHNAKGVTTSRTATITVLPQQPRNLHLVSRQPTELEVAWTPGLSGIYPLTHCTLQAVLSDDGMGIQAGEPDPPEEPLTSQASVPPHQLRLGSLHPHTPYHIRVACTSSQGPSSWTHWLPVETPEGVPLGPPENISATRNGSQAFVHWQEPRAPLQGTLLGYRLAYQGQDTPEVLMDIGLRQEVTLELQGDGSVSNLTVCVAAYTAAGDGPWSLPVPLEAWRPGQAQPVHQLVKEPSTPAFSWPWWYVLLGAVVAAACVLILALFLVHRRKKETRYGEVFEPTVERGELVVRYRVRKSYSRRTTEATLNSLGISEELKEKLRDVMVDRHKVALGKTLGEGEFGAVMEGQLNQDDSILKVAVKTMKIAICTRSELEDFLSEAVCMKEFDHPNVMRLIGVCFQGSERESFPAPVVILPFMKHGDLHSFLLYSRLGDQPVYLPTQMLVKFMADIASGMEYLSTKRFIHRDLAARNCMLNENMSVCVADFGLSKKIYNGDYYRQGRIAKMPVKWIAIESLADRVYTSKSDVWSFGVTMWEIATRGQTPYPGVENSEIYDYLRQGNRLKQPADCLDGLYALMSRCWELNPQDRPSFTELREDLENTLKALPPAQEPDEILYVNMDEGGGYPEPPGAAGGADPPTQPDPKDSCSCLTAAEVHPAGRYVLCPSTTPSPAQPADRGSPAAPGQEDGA

For another assay, the target named is T4, PDK1(h) (Homo sapiens, UniProt O15530).
T4 construct: purchased Millipore KinaseProfiler
T4 sequence (O15530 1-556): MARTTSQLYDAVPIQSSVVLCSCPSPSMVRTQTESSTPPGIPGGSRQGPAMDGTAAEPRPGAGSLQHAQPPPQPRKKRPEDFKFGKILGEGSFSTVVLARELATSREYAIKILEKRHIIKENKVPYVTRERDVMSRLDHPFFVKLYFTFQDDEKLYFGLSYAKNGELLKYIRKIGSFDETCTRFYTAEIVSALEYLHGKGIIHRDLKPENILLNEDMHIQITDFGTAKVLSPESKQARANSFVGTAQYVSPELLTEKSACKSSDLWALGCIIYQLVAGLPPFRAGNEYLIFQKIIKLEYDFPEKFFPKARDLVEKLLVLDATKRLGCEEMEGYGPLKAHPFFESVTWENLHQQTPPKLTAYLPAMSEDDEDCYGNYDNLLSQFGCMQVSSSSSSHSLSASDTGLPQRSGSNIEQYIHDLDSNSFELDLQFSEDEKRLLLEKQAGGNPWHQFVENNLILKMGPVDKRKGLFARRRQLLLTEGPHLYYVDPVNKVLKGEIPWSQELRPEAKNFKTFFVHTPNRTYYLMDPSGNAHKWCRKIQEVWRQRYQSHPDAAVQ

A word on the inhibition: it is the change of the read-out against control, counted positive when it falls.

Structures are written as SMILES. Like-named read-outs stand apart in the source and are kept apart here.

T1 sequence (Q02763 23-1124 Y897S): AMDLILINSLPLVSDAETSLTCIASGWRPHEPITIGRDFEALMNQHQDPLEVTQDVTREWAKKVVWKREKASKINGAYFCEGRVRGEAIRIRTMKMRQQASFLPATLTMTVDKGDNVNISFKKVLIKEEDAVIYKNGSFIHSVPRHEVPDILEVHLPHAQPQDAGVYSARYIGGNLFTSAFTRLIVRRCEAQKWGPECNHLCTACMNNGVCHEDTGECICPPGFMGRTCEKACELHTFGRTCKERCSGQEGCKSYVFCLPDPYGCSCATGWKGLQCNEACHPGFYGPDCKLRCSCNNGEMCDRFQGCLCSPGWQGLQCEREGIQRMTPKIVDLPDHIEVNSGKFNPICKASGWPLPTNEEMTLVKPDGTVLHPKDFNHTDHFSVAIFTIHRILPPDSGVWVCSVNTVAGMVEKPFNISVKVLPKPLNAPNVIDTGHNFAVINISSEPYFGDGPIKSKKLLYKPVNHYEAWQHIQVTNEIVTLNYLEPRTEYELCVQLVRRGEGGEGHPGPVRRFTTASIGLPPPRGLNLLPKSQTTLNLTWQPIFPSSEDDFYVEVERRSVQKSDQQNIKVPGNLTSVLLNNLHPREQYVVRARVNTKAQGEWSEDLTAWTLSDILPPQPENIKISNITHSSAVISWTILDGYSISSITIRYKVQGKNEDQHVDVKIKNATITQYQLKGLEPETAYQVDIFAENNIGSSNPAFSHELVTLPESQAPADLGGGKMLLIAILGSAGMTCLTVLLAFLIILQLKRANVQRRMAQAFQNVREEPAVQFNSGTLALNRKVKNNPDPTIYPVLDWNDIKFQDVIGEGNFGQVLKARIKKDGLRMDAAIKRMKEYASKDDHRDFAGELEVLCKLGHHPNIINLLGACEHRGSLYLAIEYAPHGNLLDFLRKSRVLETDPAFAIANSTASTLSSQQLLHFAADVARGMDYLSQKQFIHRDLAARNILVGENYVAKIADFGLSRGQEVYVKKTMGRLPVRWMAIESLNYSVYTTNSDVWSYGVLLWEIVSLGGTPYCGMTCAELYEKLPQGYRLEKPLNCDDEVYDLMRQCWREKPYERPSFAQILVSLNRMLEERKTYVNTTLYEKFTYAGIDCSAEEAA

As to `Cn1ncc(Cl)c1-c1cc(C(=O)N[C@H](CN)Cc2cccc(F)c2)sc1Cl` [GSK2110183], the inhibition at 0.5 µM at Tie2(Y897S)(h) was -5%; at Mer(h) it was 2%; on Axl(h) it was 6%; against PDK1(h), -12%. Moreover, the inhibition at 10 µM on Tie2(Y897S)(h) is -4%; against Mer(h), 65%; on Axl(h), 37%; on PDK1(h), -6%.

As for `Cn1ncc(Cl)c1-c1cc(C(=O)N[C@H](CN)Cc2ccc(F)c(F)c2)oc1Cl` [GSK2141795], the inhibition at 0.5 µM at Tie2(Y897S)(h) (0.5 µM, read-out: % Inhibition) was -4%; at Mer(h) (0.5 µM, read-out: % Inhibition) it was 10%; on Axl(h) (0.5 µM, read-out: % Inhibition), -2%; at PDK1(h) (0.5 µM, read-out: % Inhibition), 3%. Also, the inhibition at 10 µM at Tie2(Y897S)(h) (10 µM, read-out: % Inhibition) was 2%; at Mer(h) (10 µM, read-out: % Inhibition), 63%; on Axl(h) (10 µM, read-out: % Inhibition), -6%; on PDK1(h) (10 µM, read-out: % Inhibition), 19%.

For the origin of these results see PMC4076210, “Discovery of Novel AKT Inhibitors with Enhanced Anti-Tumor Effects in Combination with the MEK Inhibitor” (PLoS ONE, 2014).
